# Columns and labels:
# [1] = system: K562; test: Antiproliferative activity against human K562 cells by MTS assay; format: functional, cell-based
# [2] = Antiproliferative activity against imatinib-resistant human K562R cells by MTS assay; format: functional, cell-based
# [3] = system: BaF3; test: Antiproliferative activity against mouse BaF3 cells harbouring BCR-ABL T315I mutant by MTS assay; format: cell-based
# [4] = system: L02; test: Antiproliferative activity against human L02 cells by MTS assay; format: cell-based
# [5] = K562, read-out: pIC50 (converted)
smiles,measurement,setting,value
Cc1sc(Nc2cccc(C(=O)NCC(=O)O)c2)nc1-c1ccc(F)cc1,IC50,[1],87.8 µM
same,IC50,"[2]; K562, read-out: IC50",> 100 µM
same,IC50,[3],> 64 µM
same,IC50,[4],> 100 µM
CCc1sc(Nc2cccc(C(=O)NCC(=O)O)c2)nc1-c1ccc(Cl)cc1,IC50,[1],> 100 µM
same,IC50,"[2]; K562, read-out: IC50",> 100 µM
same,IC50,[4],> 100 µM
Cc1sc(Nc2cccc(C(=O)N[C@@H](Cc3ccccc3)C(=O)O)c2)nc1-c1ccc(C(F)(F)F)cc1,IC50,[1],44.1 µM
same,IC50,"[2]; K562, read-out: IC50",78.1 µM
same,IC50,[2]; [5],78.2 µM
same,IC50,[4],> 100 µM
CC(=O)[C@H](Cc1ccccc1)NC(=O)c1cccc(Nc2nc(-c3ccc(C)cc3)c(C)s2)c1,IC50,[1],83.6 µM
same,IC50,"[2]; K562, read-out: IC50",14.7 µM
same,IC50,[2]; [5],14.7 µM
same,IC50,[4],> 100 µM
Cc1ccc(-c2nc(Nc3cccc(C(=O)NCC(=O)O)c3)sc2C)cc1,IC50,[1],> 100 µM
same,IC50,"[2]; K562, read-out: IC50",> 100 µM
same,IC50,[4],> 100 µM
CC(=O)[C@H](Cc1ccccc1)NC(=O)c1cccc(Nc2nc(-c3ccc(F)cc3)c(C)s2)c1,IC50,[1],28.6 µM
same,IC50,"[2]; K562, read-out: IC50",12.8 µM
same,IC50,[2]; [5],12.9 µM
same,IC50,[3],19.1 µM
same,IC50,[4],> 100 µM
Cc1sc(Nc2cccc(C(=O)N[C@@H](Cc3ccccc3)C(=O)O)c2)nc1-c1ccc(F)cc1,IC50,[1],79.5 µM
same,IC50,"[2]; K562, read-out: IC50",41.3 µM
same,IC50,[2]; [5],41.3 µM
same,IC50,[4],> 100 µM
CC(=O)CNC(=O)c1cccc(Nc2nc(-c3ccc(C)cc3)c(C)s2)c1,IC50,[1],> 100 µM
same,IC50,"[2]; K562, read-out: IC50",50.2 µM
same,IC50,[2]; [5],50.2 µM
same,IC50,[4],> 100 µM
Cc1sc(Nc2cccc(C(=O)NCC(=O)O)c2)nc1-c1ccccc1,IC50,[1],57.6 µM
same,IC50,"[2]; K562, read-out: IC50",61.7 µM
same,IC50,[2]; [5],61.7 µM
same,IC50,[4],> 100 µM
Cc1sc(Nc2cccc(C(=O)N[C@@H](Cc3ccccc3)C(=O)O)c2)nc1-c1ccc(Cl)cc1,IC50,[1],51 µM
same,IC50,"[2]; K562, read-out: IC50",48.1 µM
same,IC50,[2]; [5],48.1 µM
same,IC50,[4],> 100 µM
Cc1sc(Nc2cccc(C(=O)N[C@@H](Cc3ccccc3)C(=O)O)c2)nc1-c1ccccc1,IC50,[1],66 µM
same,IC50,"[2]; K562, read-out: IC50",86.8 µM
same,IC50,[2]; [5],86.9 µM
same,IC50,[4],> 100 µM
CCc1sc(Nc2cccc(C(=O)N[C@@H](Cc3ccccc3)C(C)=O)c2)nc1-c1ccc(Cl)cc1,IC50,[1],> 100 µM
same,IC50,"[2]; K562, read-out: IC50",15.9 µM
same,IC50,[2]; [5],15.9 µM
same,IC50,[4],> 100 µM
Cc1sc(Nc2cccc(C(=O)NCC(=O)O)c2)nc1-c1ccc(O)cc1,IC50,[1],71.8 µM
same,IC50,"[2]; K562, read-out: IC50",> 100 µM
same,IC50,[4],> 100 µM
Cc1sc(Nc2cccc(C(=O)NCC(=O)O)c2)nc1-c1ccc(C(F)(F)F)cc1,IC50,[1],34.8 µM
same,IC50,"[2]; K562, read-out: IC50",> 100 µM
same,IC50,[3],> 64 µM
same,IC50,[4],> 100 µM
CC(=O)[C@H](Cc1ccccc1)NC(=O)c1cccc(Nc2nc(-c3ccc(Cl)cc3)c(C)s2)c1,IC50,[1],51.4 µM
same,IC50,"[2]; K562, read-out: IC50",11.3 µM
same,IC50,[2]; [5],11.4 µM
same,IC50,[4],> 100 µM
Cc1sc(Nc2cccc(C(=O)N[C@@H](Cc3ccccc3)C(=O)O)c2)nc1-c1ccc(O)cc1,IC50,[1],68.9 µM
same,IC50,"[2]; K562, read-out: IC50",62.9 µM
same,IC50,[2]; [5],63 µM
same,IC50,[4],> 100 µM
CCc1sc(Nc2cccc(C(=O)N[C@@H](Cc3ccccc3)C(=O)O)c2)nc1-c1ccccc1,IC50,[1],93.3 µM
same,IC50,"[2]; K562, read-out: IC50",78 µM
same,IC50,[2]; [5],78 µM
same,IC50,[4],> 100 µM
CC(=O)CNC(=O)c1cccc(Nc2nc(-c3ccc(C(F)(F)F)cc3)c(C)s2)c1,IC50,[1],40.9 µM
same,IC50,"[2]; K562, read-out: IC50",35.4 µM
same,IC50,[2]; [5],35.4 µM
same,IC50,[4],> 100 µM
CCc1sc(Nc2cccc(C(=O)NCC(C)=O)c2)nc1-c1ccc(Cl)cc1,IC50,[1],> 100 µM
same,IC50,"[2]; K562, read-out: IC50",> 100 µM
same,IC50,[4],> 100 µM
CC(=O)CNC(=O)c1cccc(Nc2nc(-c3ccc(O)cc3)c(C)s2)c1,IC50,[1],66.3 µM
same,IC50,"[2]; K562, read-out: IC50",68.3 µM
same,IC50,[2]; [5],68.2 µM
same,IC50,[3],> 64 µM
same,IC50,[4],> 100 µM
CC(=O)CNC(=O)c1cccc(Nc2nc(-c3ccccc3)c(C)s2)c1,IC50,[1],> 100 µM
same,IC50,"[2]; K562, read-out: IC50",> 100 µM
same,IC50,[4],> 100 µM
CC(=O)[C@H](Cc1ccccc1)NC(=O)c1cccc(Nc2nc(-c3ccc(O)cc3)c(C)s2)c1,IC50,[1],8.32 µM
same,IC50,"[2]; K562, read-out: IC50",7.31 µM
same,IC50,[2]; [5],7.31 µM
same,IC50,[3],36.6 µM
same,IC50,[4],> 100 µM
Cc1sc(Nc2cccc(C(=O)NCC(=O)O)c2)nc1-c1ccc(Cl)cc1,IC50,[1],60.5 µM
same,IC50,"[2]; K562, read-out: IC50",71.5 µM
same,IC50,[2]; [5],71.4 µM
same,IC50,[4],> 100 µM
CCc1sc(Nc2cccc(C(=O)N[C@@H](Cc3ccccc3)C(=O)O)c2)nc1-c1ccc(Cl)cc1,IC50,[1],> 100 µM
same,IC50,"[2]; K562, read-out: IC50",> 100 µM
same,IC50,[4],> 100 µM
CC(=O)[C@H](Cc1ccccc1)NC(=O)c1cccc(Nc2nc(-c3ccccc3)c(C)s2)c1,IC50,[1],53.1 µM
same,IC50,"[2]; K562, read-out: IC50",30.2 µM
same,IC50,[2]; [5],30.2 µM
same,IC50,[4],> 100 µM
CCc1sc(Nc2cccc(C(=O)NCC(C)=O)c2)nc1-c1ccccc1,IC50,[1],61.7 µM
same,IC50,"[2]; K562, read-out: IC50",17.6 µM
same,IC50,[2]; [5],17.6 µM
same,IC50,[4],> 100 µM
CCc1sc(Nc2cccc(C(=O)N[C@@H](Cc3ccccc3)C(C)=O)c2)nc1-c1ccccc1,IC50,[1],> 100 µM
same,IC50,"[2]; K562, read-out: IC50",17.2 µM
same,IC50,[2]; [5],17.2 µM
same,IC50,[4],> 100 µM
CC(=O)CNC(=O)c1cccc(Nc2nc(-c3ccc(Cl)cc3)c(C)s2)c1,IC50,[1],> 100 µM
same,IC50,"[2]; K562, read-out: IC50",> 100 µM
same,IC50,[4],> 100 µM
CCc1sc(Nc2cccc(C(=O)NCC(=O)O)c2)nc1-c1ccccc1,IC50,[1],> 100 µM
same,IC50,"[2]; K562, read-out: IC50",> 100 µM
same,IC50,[4],> 100 µM
CC(=O)[C@H](Cc1ccccc1)NC(=O)c1cccc(Nc2nc(-c3ccc(C(F)(F)F)cc3)c(C)s2)c1,IC50,[1],28.7 µM
same,IC50,"[2]; K562, read-out: IC50",8.47 µM
same,IC50,[2]; [5],8.47 µM
same,IC50,[3],19.8 µM
same,IC50,[4],> 100 µM
Cc1ccc(-c2nc(Nc3cccc(C(=O)N[C@@H](Cc4ccccc4)C(=O)O)c3)sc2C)cc1,IC50,[1],48.8 µM
same,IC50,"[2]; K562, read-out: IC50",63.4 µM
same,IC50,[2]; [5],63.4 µM
same,IC50,[4],> 100 µM
CC(=O)CNC(=O)c1cccc(Nc2nc(-c3ccc(F)cc3)c(C)s2)c1,IC50,[1],> 100 µM
same,IC50,"[2]; K562, read-out: IC50",> 100 µM
same,IC50,[4],> 100 µM
Cc1ccc(NC(=O)c2ccc(CN3CCN(C)CC3)cc2)cc1Nc1nccc(-c2cccnc2)n1 [IMATINIB],IC50,[1],4.63 µM
same,IC50,"[2]; K562, read-out: IC50",> 100 µM
same,IC50,[4],> 100 µM

# Source: ChEMBL document CHEMBL4834451, “Anti-chronic myeloid leukemia activity and quantitative structure-activity relationship of novel thiazole aminobenzamide derivatives” (Bioorg Med Chem Lett, 2021)
